Conditions: 283.14 K, Liquid, Vibrating tube method

FC(C(F)(F)F)C(F)(F)F [1,1,1,2,3,3,3-heptafluoropropane]
Conditions	mass density [kg/m3]
933 kPa	1452.5
962 kPa	1452.6
988 kPa	1452.7
1029 kPa	1453
1062 kPa	1453.3
1091 kPa	1453.4
1127 kPa	1453.7
1160 kPa	1453.8
1193 kPa	1454
1227 kPa	1454.2
1264 kPa	1454.5
1297 kPa	1454.5
1331 kPa	1454.9
1362 kPa	1454.9
1400 kPa	1455.2
1438 kPa	1455.5
1476 kPa	1455.6
1508 kPa	1455.9
1543 kPa	1456
1576 kPa	1456.3
1621 kPa	1456.5
1656 kPa	1456.8
1696 kPa	1456.8
1725 kPa	1457.1
1760 kPa	1457.3
1800 kPa	1457.5
1829 kPa	1457.7
1869 kPa	1457.9
1899 kPa	1458.1
1939 kPa	1458.4
1978 kPa	1458.6
2027 kPa	1458.8
2062 kPa	1459.1
2097 kPa	1459.2
2137 kPa	1459.6
2167 kPa	1459.6
2214 kPa	1460
2245 kPa	1460.1
2282 kPa	1460.4
2317 kPa	1460.6
2349 kPa	1460.8
2385 kPa	1460.9
2431 kPa	1461.1
2457 kPa	1461.1
2499 kPa	1461.5
2536 kPa	1461.6
2578 kPa	1461.9
2615 kPa	1462.1
3150 kPa	1465
3179 kPa	1465.2
3208 kPa	1465.5
3236 kPa	1465.6
3261 kPa	1465.6
3292 kPa	1465.8
3316 kPa	1465.9
3349 kPa	1466.2
3370 kPa	1466.4
3404 kPa	1466.4
3440 kPa	1466.6
3467 kPa	1466.9
3502 kPa	1467
3528 kPa	1467
3555 kPa	1467.3
3582 kPa	1467.3
3606 kPa	1467.5
3630 kPa	1467.6
3997 kPa	1469.6
4037 kPa	1469.8
4059 kPa	1469.8
4089 kPa	1470.1
4112 kPa	1470.1
4138 kPa	1470.4
4161 kPa	1470.5
4194 kPa	1470.6
4220 kPa	1470.8
4246 kPa	1470.9
4268 kPa	1471.1
4295 kPa	1471.2
4326 kPa	1471.4
4370 kPa	1471.5
4397 kPa	1471.6
4431 kPa	1471.8
4454 kPa	1472
4485 kPa	1472.1
4521 kPa	1472.3
4552 kPa	1472.4
4587 kPa	1472.7
4611 kPa	1472.8
4642 kPa	1472.9
4662 kPa	1473.1
4691 kPa	1473.2
4714 kPa	1473.3
4746 kPa	1473.5
4770 kPa	1473.6
4833 kPa	1473.9
4872 kPa	1474.1
4976 kPa	1474.5
5454 kPa	1477.2
5490 kPa	1477.3
5691 kPa	1478.2
5724 kPa	1478.4
5757 kPa	1478.6

— the NIST ThermoML archive (doi:10.1021/je700260f)
